Experiment: log P determination by HPLC on reversed-phase column (C 18), EEC directive 79/831 Annex V.A8
Type: physicochemical
Conditions: reversed-phase HPLC column (C 18), pH 2.3, pH 2.3 (marked a), 0.1% aqueous phosphoric acid/acetonitrile, 43° C.
Experimental: The log P values given in the tables and Preparation Examples above are determined in accordance with EEC directive 79/831 Annex V.A8 by HPLC (High Performance Liquid Chromatography) using a reversed-phase column (C 18). Temperature: 43° C. In the acidic range, the determination is carried out at pH 2.3 using the mobile phases 0.1% aqueous phosphoric acid and acetonitrile; linear gradient from 10% acetonitrile to 90% acetonitrile (marked^a) in the table). In the neutral range, the determination is carried out at pH 7.5 using the mobile phases 0.01-molar aqueous phosphate buffer solution and acetonitrile; linear gradient from 10% acetonitrile to 90% acetonitrile (marked^b) in the table). Calibration is carried out using unbranched alkan-2-ones (having 3 to 16 carbon atoms) with known log P values (determination of the log P values by the retention times using linear interpolation between two successive alkanones).

`CC(C)[C@H](C)OC(=O)[C@H]1CC(c2c(F)cccc2F)=NC1c1ccc(-c2ccc(OC(F)(F)F)cc2)cc1` (stereo partly drawn) [Example 55] and `CC(C)[C@@H](C)OC(=O)[C@H]1CC(c2c(F)cccc2F)=NC1c1ccc(-c2ccc(OC(F)(F)F)cc2)cc1` (stereo partly drawn) [Example 56] are within 0.2 log units of each other in chromatographic logP: 5.74 for the first, 5.65 for the second.

Compared with `CNC(=O)[C@H]1CC(c2c(F)cccc2F)=NC1c1ccc(-c2ccc(OC(F)(F)F)cc2)cc1` (stereo partly drawn) [Example 58], `CCNC(=O)[C@H]1CC(c2c(F)cccc2F)=NC1c1ccc(-c2ccc(OC(F)(F)F)cc2)cc1` (stereo partly drawn) [Example 59] is higher in chromatographic logP: 3.26 for the first, 3.49 for the second.

Compared with `CCCNC(=O)[C@H]1CC(c2c(F)cccc2F)=NC1c1ccc(-c2ccc(OC(F)(F)F)cc2)cc1` (stereo partly drawn) [Example 60], `CCCCNC(=O)[C@H]1CC(c2c(F)cccc2F)=NC1c1ccc(-c2ccc(OC(F)(F)F)cc2)cc1` (stereo partly drawn) [Example 61] is higher in chromatographic logP: 3.78 for the first, 4.03 for the second.

First: CCCCCNC(=O)[C@H]1CC(c2c(F)cccc2F)=NC1c1ccc(-c2ccc(OC(F)(F)F)cc2)cc1 (stereo partly drawn) [Example 62]
Second: CCCCCCNC(=O)[C@H]1CC(c2c(F)cccc2F)=NC1c1ccc(-c2ccc(OC(F)(F)F)cc2)cc1 (stereo partly drawn) [Example 63]
The chromatographic logP of the first is lower: 4.37 for the first, 4.67 for the second.

Going from `CC(C)NC(=O)[C@H]1CC(c2c(F)cccc2F)=NC1c1ccc(-c2ccc(OC(F)(F)F)cc2)cc1` (stereo partly drawn) [Example 64] to `CC(C)(C)NC(=O)[C@H]1CC(c2c(F)cccc2F)=NC1c1ccc(-c2ccc(OC(F)(F)F)cc2)cc1` (stereo partly drawn) [Example 65], the chromatographic logP rises from 3.74 to 4.23.

Compared with `O=C(NC1CCCCC1)[C@H]1CC(c2c(F)cccc2F)=NC1c1ccc(-c2ccc(OC(F)(F)F)cc2)cc1` (stereo partly drawn) [Example 66], `O=C(NCC1CCCCC1)[C@H]1CC(c2c(F)cccc2F)=NC1c1ccc(-c2ccc(OC(F)(F)F)cc2)cc1` (stereo partly drawn) [Example 82] is higher in chromatographic logP: 4.37 for the first, 4.67 for the second.

Compared with `CN(C)C(=O)[C@H]1CC(c2c(F)cccc2F)=NC1c1ccc(-c2ccc(OC(F)(F)F)cc2)cc1` (stereo partly drawn) [Example 67], `CCN(C)C(=O)[C@H]1CC(c2c(F)cccc2F)=NC1c1ccc(-c2ccc(OC(F)(F)F)cc2)cc1` (stereo partly drawn) [Example 68] is higher in chromatographic logP: 3.61 for the first, 3.9 for the second.

First: CCCN(C)C(=O)[C@H]1CC(c2c(F)cccc2F)=NC1c1ccc(-c2ccc(OC(F)(F)F)cc2)cc1 (stereo partly drawn) [Example 69]
Second: CCCCN(C)C(=O)[C@H]1CC(c2c(F)cccc2F)=NC1c1ccc(-c2ccc(OC(F)(F)F)cc2)cc1 (stereo partly drawn) [Example 70]
The chromatographic logP of the first is lower: 4.23 for the first, 4.56 for the second.

First: CCCCCN(C)C(=O)[C@H]1CC(c2c(F)cccc2F)=NC1c1ccc(-c2ccc(OC(F)(F)F)cc2)cc1 (stereo partly drawn) [Example 71]
Second: CCCCN(CCCC)C(=O)[C@H]1CC(c2c(F)cccc2F)=NC1c1ccc(-c2ccc(OC(F)(F)F)cc2)cc1 (stereo partly drawn) [Example 74]
The chromatographic logP of the first is lower: 4.92 for the first, 5.65 for the second.

Compared with `CCN(CC)C(=O)[C@H]1CC(c2c(F)cccc2F)=NC1c1ccc(-c2ccc(OC(F)(F)F)cc2)cc1` (stereo partly drawn) [Example 72], `CCCN(CCC)C(=O)[C@H]1CC(c2c(F)cccc2F)=NC1c1ccc(-c2ccc(OC(F)(F)F)cc2)cc1` (stereo partly drawn) [Example 73] is higher in chromatographic logP: 4.18 for the first, 4.92 for the second.

Going from `CCCCCN(CCCCC)C(=O)[C@H]1CC(c2c(F)cccc2F)=NC1c1ccc(-c2ccc(OC(F)(F)F)cc2)cc1` (stereo partly drawn) [Example 75] to `COCCNC(=O)[C@H]1CC(c2c(F)cccc2F)=NC1c1ccc(-c2ccc(OC(F)(F)F)cc2)cc1` (stereo partly drawn) [Example 84], the chromatographic logP falls from 6.43 to 3.33.

Compared with `O=C([C@H]1CC(c2c(F)cccc2F)=NC1c1ccc(-c2ccc(OC(F)(F)F)cc2)cc1)N1CCCC1` (stereo partly drawn) [Example 76], `O=C([C@H]1CC(c2c(F)cccc2F)=NC1c1ccc(-c2ccc(OC(F)(F)F)cc2)cc1)N1CCCCC1` (stereo partly drawn) [Example 77] is higher in chromatographic logP: 3.82 for the first, 4.32 for the second.

Compared with `O=C(NCc1ccccc1)[C@H]1CC(c2c(F)cccc2F)=NC1c1ccc(-c2ccc(OC(F)(F)F)cc2)cc1` (stereo partly drawn) [Example 78], `O=C(NCc1ccccc1Cl)[C@H]1CC(c2c(F)cccc2F)=NC1c1ccc(-c2ccc(OC(F)(F)F)cc2)cc1` (stereo partly drawn) [Example 79] is higher in chromatographic logP: 3.94 for the first, 4.46 for the second.

`O=C(NCc1cccc(Cl)c1)[C@H]1CC(c2c(F)cccc2F)=NC1c1ccc(-c2ccc(OC(F)(F)F)cc2)cc1` (stereo partly drawn) [Example 80] and `Cc1cccc(CNC(=O)[C@H]2CC(c3c(F)cccc3F)=NC2c2ccc(-c3ccc(OC(F)(F)F)cc3)cc2)c1` (stereo partly drawn) [Example 98] are within 0.2 log units of each other in chromatographic logP: 4.46 for the first, 4.41 for the second.

`O=C(NCc1ccc(Cl)cc1)[C@H]1CC(c2c(F)cccc2F)=NC1c1ccc(-c2ccc(OC(F)(F)F)cc2)cc1` (stereo partly drawn) [Example 81] and `Cc1ccc(CNC(=O)[C@H]2CC(c3c(F)cccc3F)=NC2c2ccc(-c3ccc(OC(F)(F)F)cc3)cc2)cc1` (stereo partly drawn) [Example 91] are within 0.2 log units of each other in chromatographic logP: 4.41 for the first, 4.37 for the second.

Compared with `O=C(NCC1CCCO1)[C@H]1CC(c2c(F)cccc2F)=NC1c1ccc(-c2ccc(OC(F)(F)F)cc2)cc1` (stereo partly drawn) [Example 83], `O=C(NCC(F)(F)F)[C@H]1CC(c2c(F)cccc2F)=NC1c1ccc(-c2ccc(OC(F)(F)F)cc2)cc1` (stereo partly drawn) [Example 86] is higher in chromatographic logP: 3.48 for the first, 3.94 for the second.

`O=C(NCc1cccs1)[C@H]1CC(c2c(F)cccc2F)=NC1c1ccc(-c2ccc(OC(F)(F)F)cc2)cc1` (stereo partly drawn) [Example 85] and `COc1ccccc1CNC(=O)[C@H]1CC(c2c(F)cccc2F)=NC1c1ccc(-c2ccc(OC(F)(F)F)cc2)cc1` (stereo partly drawn) [Example 94] are within 0.2 log units of each other in chromatographic logP: 4.03 for the first, 4.18 for the second.

`O=C(Nc1nccs1)[C@H]1CC(c2c(F)cccc2F)=NC1c1ccc(-c2ccc(OC(F)(F)F)cc2)cc1` (stereo partly drawn) [Example 87] and `COC(=O)c1cnc(NC(=O)[C@H]2CC(c3c(F)cccc3F)=NC2c2ccc(-c3ccc(OC(F)(F)F)cc3)cc2)s1` (stereo partly drawn) [Example 88] are within 0.2 log units of each other in chromatographic logP: 3.78 for the first, 3.94 for the second.

Going from `O=C(NC1CCC(C(F)(F)F)CC1)[C@H]1CC(c2c(F)cccc2F)=NC1c1ccc(-c2ccc(OC(F)(F)F)cc2)cc1` (stereo partly drawn) [Example 89] to `O=C(Nc1ccc(OC(F)(F)F)cc1)[C@H]1CC(c2c(F)cccc2F)=NC1c1ccc(-c2ccc(OC(F)(F)F)cc2)cc1` (stereo partly drawn) [Example 92], the chromatographic logP rises from 4.46 to 4.87.

Compared with `O=C([C@H]1CC(c2c(F)cccc2F)=NC1c1ccc(-c2ccc(OC(F)(F)F)cc2)cc1)N1CCOCC1` (stereo partly drawn) [Example 90], `O=C(NCc1ccc(F)cc1F)[C@H]1CC(c2c(F)cccc2F)=NC1c1ccc(-c2ccc(OC(F)(F)F)cc2)cc1` (stereo partly drawn) [Example 97] is higher in chromatographic logP: 3.49 for the first, 4.23 for the second.

Going from `O=C(NCc1ccc(Cl)cc1Cl)[C@H]1CC(c2c(F)cccc2F)=NC1c1ccc(-c2ccc(OC(F)(F)F)cc2)cc1` (stereo partly drawn) [Example 93] to `COc1cccc(CNC(=O)[C@H]2CC(c3c(F)cccc3F)=NC2c2ccc(-c3ccc(OC(F)(F)F)cc3)cc2)c1OC` (stereo partly drawn) [Example 95], the chromatographic logP falls from 4.87 to 4.03.

In the case of `Cc1cc(C)cc(CNC(=O)[C@H]2CC(c3c(F)cccc3F)=NC2c2ccc(-c3ccc(OC(F)(F)F)cc3)cc2)c1` (stereo partly drawn) [Example 96], the chromatographic logP is reported as 4.72.

Same assay, conditions: reversed-phase HPLC column (C 18), pH 7.5, pH 7.5 (marked b), 0.01-molar aqueous phosphate buffer/acetonitrile, 43° C.

`CC(C)[C@H](C)OC(=O)[C@H]1CC(c2c(F)cccc2F)=NC1c1ccc(-c2ccc(OC(F)(F)F)cc2)cc1` (stereo partly drawn) [Example 55] and `CC(C)[C@@H](C)OC(=O)[C@H]1CC(c2c(F)cccc2F)=NC1c1ccc(-c2ccc(OC(F)(F)F)cc2)cc1` (stereo partly drawn) [Example 56] are within 0.2 log units of each other in chromatographic logP: 5.77 for the first, 5.86 for the second.

Reference: US6995185B2, “Δ1-pyrrolines used as pesticides” (Bayer Cropscience AG, priority 2000, dated 2006)
